In one series the test system is HeLa cells, clone S3. Put plainly: Adhesion experiment (platelet binding to cell surface), microscopic quantification. Format: cell-based, human. Particulars: for Inhibition of platelet binding to growing cells: 0.1 ppm, FIG. 11, triplicate; for Inhibition of platelet binding to growing cells (in words): concentration not stated; for Reduction of platelet binding to the cells: 0.01 U/mL; for Inhibition of the binding of platelets to the HeLa cells: 0.1 U/mL, FIGS. 5 to 9. As to the method:
The process for evaluating the platelet binding of growing cells involves the isolation of platelets from peripheral blood with two subsequent washes and cell sedimentation. These washes include a partial activation of the platelets, which is relevant for their interaction with Heparin. The incubation with the cells under investigation takes place under conditions in which full activation of platelets is approached, which would lead to lumps forming in the platelets. This would hinder analysis. Therefore, a low concentration of EDTA is added to the assay. The quantification of platelets and the calculation of the surface portions of cells and background is carried out using appropriate software, namely by macros in the open source program ImageJ.
Virus and mycoplasma free HeLa cells, clone S3, and human skin fibroblasts (NHDF) were purchased from Promo Cell, Heidelberg. Their human origin was confirmed by STR-Analysis. HeLa cells were maintained in Eagles MEM with 10% fetal calf serum. The NHDF were also maintained with 10% fetal calf serum in RPMI 1640. The passaging was performed by trypsin-EDTA treatment. The cell lines were maintained in either 25 ml bottles or in 3 cm plates.
The cells used for the experiment are cultured for 2 or 3 days in standard plates. At the start of the experiment about ⅓ of the plate surface should be covered with cells. The culture plates are subsequently washed with the buffer mixture described above and filled with further buffer mixture. For example, 30 mm culture dishes are filled with 2 ml 37° C. pre-warmed buffer mixture and 3×10^7 platelets obtained from the above-mentioned suspension.
The platelet-treated plates are incubated at 37° C. for 60 minutes. In this incubation, the pretreated platelets adhere to proliferating cells. However, cells of G0-phase bind little or none of the pre-treated platelets. This stage of incubation is when the substance to be tested is added to the cell culture buffer, in order to detect whether an effect on platelet binding is observed.
After the one hour incubation, the plates are washed at room temperature with the above mentioned buffer mixture until no free water floating platelets (generally 2 to 4 washes) are present and immediately fixed with glutaraldehyde (1% v/v in H2O).
The evaluation is carried out photographically. For this purpose, the image analysis program ImageJ is applied. The number of cell-bound platelets in relation to the recorded cell number of cells is determined. Additionally, the number of cell-bound platelets in relation to the cell-covered area may be determined.
Images are produced after the fixation in triplicate per plate. Phase contrast or brightfield 25×, 16× or 10× objectives are used. Image analysis is carried out according to SOP IJ. The open source program ImageJ may be used to for differential image subtraction and mask optimization. Subsequently, platelet number, cell number and proportional cell surface are determined by other IJ components.

A further series concerns HeLa cells. Put plainly: Cell culture experiment for testing inhibition of cell proliferation (daily co-incubation with platelets, serum-free). Format: cell-based, human. The conditions noted are these: inhibitor 1.0 or 0.1 μg/mL co-incubated with platelets 30 minutes daily, serum-free Eagle's MEM. As to the method:
In order to interrogate the effectiveness of PPS and DXS with respect to the inhibition of cell growth, the following experiment may be carried out.
Experiment duration: 5 days; Culture medium: Eagle's MEM without serum addition.
Test approach: PPS or DXS in 1.0, 0.1 μg/mL, and control (0 μg/mL final concentration).
HeLa cells are cultured from stocks: 10^4 cells/25 cm^2 flask, cell numbers are counted in a Fuchs-Rosenthal chamber. Platelets are prepared as described above.
Platelets and HeLa cells, or other tumor cell lines, either with or without inhibitor, are co-incubated for 30 minutes once every day, for 1 to 4 days. After co-incubation the cells are washed as described above and then allowed to rest under standard culture conditions. Typically 90×10^6 platelets are incubated per well per day.
On day 5, cells are washed with HBSS, photographed, trypsinized and the cell number counted as described above.

The nature of series [1]: Anticoagulant activity compared with heparin. Particulars: in vitro studies.
In a further series the test system is platelets. Nature of the series: In vitro platelet aggregation compared with UFH. Format: cell-based. The conditions noted are these: in vitro studies.
For series [2] the following is noted: fraction of heparin activity; cited from earlier work.

Results on eight substances are retold here after US10098906B2, “Modulation of the physical interaction between platelets and the cell surface effecting cell proliferation” (Cell Receptor GmbH, priority 2013, dated 2018).

Values joined by “and” are separate entries in the source; they are usually repeats but may differ in a detail not shown here. Equal entries are not always repeated.

As for “Dextran sulfate sodium salt from Leuconostoc spec [DXS]”, in the series on HeLa cells, clone S3, the “Inhibition of platelet binding to growing cells” value is reported as “roughly 75%” and the “Inhibition of platelet binding to growing cells (in words)” value (“Inhibition … (in words)” below) was “reproducible inhibition”. Also, the “Increase of cell number (proliferation) on day 5” value in the series with HeLa cells is given as “increases to a reduced extent”. The “Anticoagulation in comparison to UFH” value in series [1] is reported as “reduced anticoagulation”. The “Platelet aggregation in comparison to UFH” value in the series on platelets is reported as “reduced platelet aggregation”. Moreover, the “Anticoagulant activity relative to heparin” value in series [2] is on record as “much weaker”.
dalteparin: in the series with HeLa cells, clone S3, the “Reduction of platelet binding to the cells” value (“Reduction of platelet binding” for short) was “significant reduction” and the “Inhibition of the binding of platelets to the HeLa cells” value (“Inhibition of the binding of platelets” below) is given as “almost completely inhibited”.
On to danaparoid, for which, in the series on HeLa cells, clone S3 (1.25 U/mL, about 5 times the upper limit of the therapeutic range), the “Difference in platelet binding between control and treatment” value is “no significant difference”. In addition, in the series on HeLa cells, clone S3 (1.25 U/mL, control 15.9+/-7.7 platelets/cell), the “Cell-bound platelets per cell” value is 13.2 platelets/cell. In addition, the “Inhibition … (in words)” value is given as “significantly lower effect” in the series on HeLa cells, clone S3 and “to a lower extent” with HeLa cells, clone S3 (listed as Danaparoid).
Take dermatan sulfate: the “Inhibition … (in words)” value in the series with HeLa cells, clone S3 is reported as “significantly less effective”.
Regarding enoxaparin, in the series on HeLa cells, clone S3, the “Reduction of platelet binding” value is recorded as “significant reduction” and the “Inhibition of the binding of platelets” value is reported as “almost completely inhibited”.
Turning to heparan sulfate, in the series with HeLa cells, clone S3, the “Inhibition … (in words)” value is “significantly less effective”.
As for pentosan polysulfate [PPS], in the series with HeLa cells, clone S3, the “Inhibition of platelet binding to growing cells” value is recorded as “roughly 75%” and the “Inhibition … (in words)” value is given as “reproducible inhibition”. The “Increase of cell number (proliferation) on day 5” value in the series on HeLa cells is “increases to a reduced extent”. In series [1], the “Anticoagulation in comparison to UFH” value is given as “reduced anticoagulation”. In the series on platelets, the “Platelet aggregation in comparison to UFH” value is “reduced platelet aggregation”. Besides, the “Anticoagulant activity relative to heparin” value in series [2] is “less than 1/10 and much weaker and 1/15”.
Regarding tinzaparin, in the series on HeLa cells, clone S3, the “Reduction of platelet binding” value was “significant reduction” and the “Inhibition of the binding of platelets” value was “almost completely inhibited”.
